According to patent publication US20260042764A1, “COMPOSITIONS AND METHODS FOR INHIBITION OF KRAS” (TheRas, Inc., priority 2022, published 2026):

What was measured:
[1] = molecular target: T1, Avi-KRAS G12V (1-169) GppNHp/RAF1 RBD-3xFLAG (52-151) (Homo sapiens, UniProt P01116, G12V); assay: Raf1-KRAS G12V-GppNHP disruption HTRF assay (Biological Example 1); format: binding
T1 construct: Avi-KRAS G12V (1-169)
Method in brief: (§1)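 Protein mix, 1 h RT, 700 rpm; reagent mix, 1 h RT, 700 rpm; HTRF read. Buffer Tris pH 7.5/NaCl/MgCl2/BSA/Tween, 10% DMSO. Output % activity, DMSO = 100%.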

[2] = molecular target: T2, Avi-KRAS G12D (1-169) GppNHp/RAF1 RBD-3xFLAG (52-151) (Homo sapiens, UniProt P01116, G12D); assay: Raf1-KRAS G12D-GppNHP disruption HTRF assay (Biological Example 1); format: binding
T2 construct: Avi-KRAS G12D (1-169)
T2 sequence (P01116 1-169 isoform P01116-2 G12D): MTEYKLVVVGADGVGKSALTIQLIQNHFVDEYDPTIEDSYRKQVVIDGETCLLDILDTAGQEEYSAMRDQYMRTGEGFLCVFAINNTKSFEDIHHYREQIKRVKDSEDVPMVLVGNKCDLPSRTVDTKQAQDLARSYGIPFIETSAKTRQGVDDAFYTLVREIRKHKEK
Method in brief: as §1

[3] = system: GP2d cells (KRAS G12D); assay: Cell-based pERK HTRF assay in GP2d cell (Biological Example 2); conditions: GP2d, GP2d (KRAS G12D) cells, pERK HTRF
Method in brief: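 HTRF read-out of pERK (excitation 320 nm, emission 615 nm) after lysates sat 4–24 h at room temperature with Eu cryptate and d2 antibodies.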

[4] = system: SW620 cells (KRAS G12V); assay: Cell-based pERK HTRF assay in SW620 cell (Biological Example 4); conditions: Homo sapiens, SW-620, SW620 (KRAS G12V) cells, pERK HTRF
Experimental: A pERK assay (Perkin Elmer) was used to determine the effectiveness of compounds in disrupting KRAS G12V protein/effector signaling in cells.
On Day 1, cells (SW620) were seeded into 96-well plates at 3×10^4 cells/well in 80 μL complete growth media (RPMI, 10% FBS).
On Day 2, cells were treated with compounds at 0.25% DMSO. The source plate was created with compounds diluted in media at 5-fold the final assay concentration. The compounds were run in a 9-point concentration curve starting at 1 μM, with a half-log dilution between concentrations. Twenty μL was transferred onto the cell plates (final volume in wells was 100 μL). Plates were harvested after 4 h incubation by aspirating media and adding kit-supplied 1x supplemented lysis buffer to all wells (50 μL per well). Plates were then placed on a plate shaker and incubated at 850 rpm for an additional 30 min.
Antibody mixture solution was prepared by diluting aliquoted d2 and Eu Cryptate antibodies 1:20 in kit supplied detection buffer and mixing the diluted antibodies solutions (1:1 v:v).
Samples were homogenized by pipetting up and down and then transferred (16 μL of cell lysates) from the 96-well cell culture plate to two wells of the HTRF 384-well detection plate containing the antibody solution. Plates were centrifuged (524 g for Imin) and allowed to incubate between 4 and 24 h at room temperature. […] Plates were centrifuged again (524 g for 1 min), then analyzed on the En Vision plate reader using the following settings: Excitation 320 nm, Bandwidth 75 nm; Emission 615 nm, Bandwidth 85 nm; Gain 100%; Flashes 100; Lag 60 μs.

[5] = molecular target: T3, Avi-KRAS G12R (1-169) GppNHp/RAF1 RBD-3xFLAG (52-151) (Homo sapiens, UniProt P01116, G12R); assay: Raf1-KRAS G12R-GppNHP disruption HTRF assay (Biological Example 1); format: binding
T3 construct: Avi-KRAS G12R (1-169)
T3 sequence (P01116 1-169 isoform P01116-2 G12R): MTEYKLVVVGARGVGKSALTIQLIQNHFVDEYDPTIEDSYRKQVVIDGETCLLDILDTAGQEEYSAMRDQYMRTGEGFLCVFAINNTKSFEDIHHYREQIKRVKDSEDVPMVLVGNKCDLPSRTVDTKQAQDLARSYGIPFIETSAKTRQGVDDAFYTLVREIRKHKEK
Method in brief: as §1

[6] = molecular target: T4, Avi-KRAS WT (1-169) GppNHp/RAF1 RBD-3xFLAG (52-151) (Homo sapiens, UniProt P01116); assay: Raf1-KRAS WT-GppNHP disruption HTRF assay (Biological Example 1); format: binding
T4 construct: Avi-KRAS WT (1-169)
T4 sequence (P01116 1-169 isoform P01116-2): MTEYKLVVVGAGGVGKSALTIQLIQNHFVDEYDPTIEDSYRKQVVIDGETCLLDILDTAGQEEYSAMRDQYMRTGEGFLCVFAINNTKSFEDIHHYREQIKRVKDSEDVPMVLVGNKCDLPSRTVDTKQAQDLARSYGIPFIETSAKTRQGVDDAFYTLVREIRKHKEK
Method in brief: as §1

[7] = KRAS G12V, GppNHp-loaded, class symbols
[8] = KRAS G12D, GppNHp-loaded, class symbols
[9] = KRAS G12R, GppNHp-loaded, class symbols
[10] = KRAS WT, GppNHp-loaded, class symbols

T1 sequence (P01116 1-169 isoform P01116-2 G12V): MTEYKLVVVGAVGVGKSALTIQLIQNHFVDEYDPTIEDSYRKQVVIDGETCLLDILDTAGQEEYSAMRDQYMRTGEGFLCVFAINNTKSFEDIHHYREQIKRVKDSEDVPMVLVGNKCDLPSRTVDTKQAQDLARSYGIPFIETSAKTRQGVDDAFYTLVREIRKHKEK

| Structure (SMILES) | IC50 ([1]; KRAS G12V-GppNHp/RAF1 RBD HTRF) [nM] | IC50 ([2]; KRAS G12D-GppNHp/RAF1 RBD HTRF) [nM] | IC50 [3] [nM] | IC50 [4] [nM] | IC50 ([5]; KRAS G12R-GppNHp/RAF1 RBD HTRF) [nM] | IC50 ([6]; KRAS WT-GppNHp/RAF1 RBD HTRF) [nM] | IC50 [1, 7] [nM] | IC50 [2, 8] [nM] | IC50 ([3]; class symbols) [nM] | IC50 ([4]; class symbols) [nM] | IC50 [5, 9] [nM] | IC50 [6, 10] [nM] |
| --- | --- | --- | --- | --- | --- | --- | --- | --- | --- | --- | --- | --- |
| CCN(c1nc(OC[C@@]23CCCN2C[C@H](F)C3)nc2c(F)c(-c3ccc(F)c4sc(N)c(C#N)c34)c(C(F)(F)F)cc12)[C@H]1CCN(C(=O)c2ccno2)C1 (atropisomer, axis not shown) [Compound 552] | < 100 | < 100 | < 100 | < 100 | < 100 | < 100 | – | – | – | – | – | – |
| CCN(c1nc(OC[C@@]23CCCN2C[C@H](F)C3)nc2c(F)c(-c3ccc(F)c4sc(N)c(C#N)c34)c(C(F)(F)F)cc12)[C@H]1C[C@@H](C)N(C(=O)N(C)C)C1 (atropisomer, axis not shown) [Compound 558] | 100 to 1000 | 100 to 1000 | < 100 | < 100 | 100 to 1000 | 100 to 1000 | – | – | – | – | – | – |
| CC[C@@H](C)C(=O)N1CC[C@H](N(CC)c2nc(OC[C@@]34CCCN3C[C@H](F)C4)nc3c(F)c(-c4ccc(F)c5sc(N)c(C#N)c45)c(C(F)(F)F)cc23)C1 (atropisomer, axis not shown) [Compound 563] | 100 to 1000 | < 100 | < 100 | < 100 | 100 to 1000 | 100 to 1000 | – | – | – | – | – | – |
| CCN(c1nc(OC[C@@]23CCCN2C[C@H](F)C3)nc2c(F)c(-c3ccc(F)c4sc(N)c(C#N)c34)c(C(F)(F)F)cc12)[C@H]1CCN(C(=O)[C@@H](C)OC)C1 (atropisomer, axis not shown) [Compound 570] | – | – | – | – | – | – | < 100 | < 100 | < 100 | < 100 | < 100 | < 100 |
| CCN(c1nc(OC[C@@]23CCCN2C[C@H](F)C3)nc2c(F)c(-c3ccc(F)c4sc(N)c(C#N)c34)c(C(F)(F)F)cc12)[C@H]1CCN(C(=O)[C@H](C)OC)C1 (atropisomer, axis not shown) [Compound 571] | – | – | – | – | – | – | < 100 | < 100 | < 100 | < 100 | < 100 | < 100 |
| CCN(c1nc(OC[C@@]23CCCN2C[C@H](F)C3)nc2c(F)c(-c3ccc(F)c4sc(N)c(C#N)c34)c(C(F)(F)F)cc12)[C@H]1CCN(C(=O)C2CCN(C(C)=O)CC2)C1 (atropisomer, axis not shown) [Compound 575] | – | – | – | – | – | – | < 100 | < 100 | < 100 | < 100 | < 100 | < 100 |

Further lines, results first:

| IC50 ([1]; KRAS G12V-GppNHp/RAF1 RBD HTRF) [nM] | IC50 ([2]; KRAS G12D-GppNHp/RAF1 RBD HTRF) [nM] | IC50 [3] [nM] | IC50 [4] [nM] | IC50 ([5]; KRAS G12R-GppNHp/RAF1 RBD HTRF) [nM] | IC50 ([6]; KRAS WT-GppNHp/RAF1 RBD HTRF) [nM] | IC50 [1, 7] [nM] | IC50 [2, 8] [nM] | IC50 ([3]; class symbols) [nM] | IC50 ([4]; class symbols) [nM] | IC50 [5, 9] [nM] | IC50 [6, 10] [nM] | Structure (SMILES) |
| --- | --- | --- | --- | --- | --- | --- | --- | --- | --- | --- | --- | --- |
| < 100 | < 100 | < 100 | < 100 | < 100 | < 100 | – | – | – | – | – | – | CCN(c1nc(OC[C@@]23CCCN2C[C@H](F)C3)nc2c(F)c(-c3ccc(F)c4sc(N)c(C#N)c34)c(C(F)(F)F)cc12)[C@H]1CCN(C(=O)N2CCOCC2)C1 (atropisomer, axis not shown) [Compound 553] |
| < 100 | < 100 | < 100 | < 100 | < 100 | < 100 | – | – | – | – | – | – | CCN(c1nc(OC[C@@]23CCCN2C[C@H](F)C3)nc2c(F)c(-c3ccc(F)c4sc(N)c(C#N)c34)c(C(F)(F)F)cc12)[C@H]1CCN(C(=O)CCC#N)C1 (atropisomer, axis not shown) [Compound 555] |
| 100 to 1000 | < 100 | < 100 | < 100 | < 100 | 100 to 1000 | – | – | – | – | – | – | CCN(c1nc(OC[C@@]23CCCN2C[C@H](F)C3)nc2c(F)c(-c3ccc(F)c4sc(N)c(C#N)c34)c(C(F)(F)F)cc12)[C@H]1CCN(C(=O)OC(C)C)C1 (atropisomer, axis not shown) [Compound 556] |
| 100 to 1000 | < 100 | < 100 | < 100 | < 100 | 100 to 1000 | – | – | – | – | – | – | CCN(c1nc(OC[C@@]23CCCN2C[C@H](F)C3)nc2c(F)c(-c3ccc(F)c4sc(N)c(C#N)c34)c(C(F)(F)F)cc12)[C@H]1C[C@@H](C)N(C(=O)OC)C1 (atropisomer, axis not shown) [Compound 557] |
| < 100 | < 100 | < 100 | < 100 | < 100 | 100 to 1000 | – | – | – | – | – | – | CCN(c1nc(OC[C@@]23CCCN2C[C@H](F)C3)nc2c(F)c(-c3ccc(F)c4sc(N)c(C#N)c34)c(C(F)(F)F)cc12)[C@H]1CCN(C(=O)C2(F)CC2)C1 (atropisomer, axis not shown) [Compound 559] |
| < 100 | < 100 | < 100 | < 100 | < 100 | < 100 | – | – | – | – | – | – | CCN(c1nc(OC[C@@]23CCCN2C[C@H](F)C3)nc2c(F)c(-c3ccc(F)c4sc(N)c(C#N)c34)c(C(F)(F)F)cc12)[C@H]1CCN(C(=O)COC)C1 (atropisomer, axis not shown) [Compound 561] |
| 100 to 1000 | < 100 | < 100 | < 100 | < 100 | < 100 | – | – | – | – | – | – | CCN(c1nc(OC[C@@]23CCCN2C[C@H](F)C3)nc2c(F)c(-c3ccc(F)c4sc(N)c(C#N)c34)c(C(F)(F)F)cc12)[C@H]1CCN(C(=O)C(C)(C)C)C1 (atropisomer, axis not shown) [Compound 562] |
| – | – | – | – | – | – | < 100 | < 100 | < 100 | < 100 | < 100 | < 100 | CCN(c1nc(OC[C@@]23CCCN2C[C@H](F)C3)nc2c(F)c(-c3ccc(F)c4sc(N)c(C#N)c34)c(C(F)(F)F)cc12)[C@H]1CCN(C(=O)N2CCC2)C1 (atropisomer, axis not shown) [Compound 574] |
| – | – | – | – | – | – | 100 to 1000 | < 100 | < 100 | < 100 | < 100 | < 100 | CC[C@H](C)C(=O)N1CC[C@H](N(CC)c2nc(OC[C@@]34CCCN3C[C@H](F)C4)nc3c(F)c(-c4ccc(F)c5sc(N)c(C#N)c45)c(C(F)(F)F)cc23)C1 (atropisomer, axis not shown) [Compound 576] |
